According to patent publication US4100346A, “Certain 7(o-amino-methyl- or methylaminomethylphenyl- or cyclohexadienyl- or thienylacetamide)-3[1-carboxymethyl-(or ethyl- or propyl-)-tetrazol-5-ylthiomethyl]-3-cephem-4-carboxylic acids” (Bristol-Myers Company, priority 1976, dated 1978):
Values after ≈ are worked out from the molar mass of the structure shown. Read-outs that look alike come from different tables or passages of the source.

Legend:
[1] = system: Enterobacter aerogenes; assay: Minimum growth inhibitory and bactericidal concentrations for Enterobacteriaceae; assay type: cell-based; conditions: Klebsiella aerogenes, inoculum 10^4 cells; for MBC: read-out: MBC, minimum bactericidal concentration; for MIC: read-out: MIC, Minimum growth inhibitory concentration
From the text: (§1) Miscellaneous. Methods for determining bactericidal activity and susceptibility to cell-free β-lactamase were those previously used; Leitner et al., BL-S640, A Cephalosporin With a Broad Spectrum of Antibacterial Activity: Properties in vitro, Antimicrob. Agents Chemother. 7:298-305 (1975).
(§2) *MIC, Minimum growth inhibitory concentration; MBC, minimum bactericidal
(§3) concentration; expressed as micrograms per milliliter. The inoculum was […]

[2] = system: Enterobacter cloacae; assay: as above; assay type: cell-based; conditions: for MBC: read-out: MBC, minimum bactericidal concentration; for MIC: read-out: MIC, Minimum growth inhibitory concentration
From the text: as §1, §2, §3

[3] = system: Escherichia coli; assay: as above; assay type: cell-based; conditions: for MBC: read-out: MBC, minimum bactericidal concentration; for MIC: read-out: MIC, Minimum growth inhibitory concentration
From the text: as §1, §2, §3

[4] = system: Klebsiella pneumoniae; assay: as above; assay type: cell-based; conditions: for MBC: read-out: MBC, minimum bactericidal concentration; for MIC: read-out: MIC, Minimum growth inhibitory concentration
From the text: as §1, §2, §3

[5] = system: Proteus mirabilis; assay: as above; assay type: cell-based; conditions: for MBC: read-out: MBC, minimum bactericidal concentration; for MIC: read-out: MIC, Minimum growth inhibitory concentration
From the text: as §1, §2, §3

[6] = system: Proteus rettgeri; assay: as above; assay type: cell-based; conditions: Providencia rettgeri, inoculum 10^4 cells; for MBC: read-out: MBC, minimum bactericidal concentration; for MIC: read-out: MIC, Minimum growth inhibitory concentration
From the text: as §1, §2, §3

[7] = system: Proteus vulgaris; assay: as above; assay type: cell-based; conditions: inoculum 10^4 cells; for MIC: read-out: MIC, Minimum growth inhibitory concentration; for MBC: read-out: MBC, minimum bactericidal concentration
From the text: as §1, §2, §3

[8] = molecular target: β-lactamase Class I Type a, Enterobacter cloacae 214 (Enterobacter cloacae, UniProt P05364); assay type: biochemical
Sequence of β-lactamase Class I Type a, Enterobacter cloacae 214 (P05364 21-381): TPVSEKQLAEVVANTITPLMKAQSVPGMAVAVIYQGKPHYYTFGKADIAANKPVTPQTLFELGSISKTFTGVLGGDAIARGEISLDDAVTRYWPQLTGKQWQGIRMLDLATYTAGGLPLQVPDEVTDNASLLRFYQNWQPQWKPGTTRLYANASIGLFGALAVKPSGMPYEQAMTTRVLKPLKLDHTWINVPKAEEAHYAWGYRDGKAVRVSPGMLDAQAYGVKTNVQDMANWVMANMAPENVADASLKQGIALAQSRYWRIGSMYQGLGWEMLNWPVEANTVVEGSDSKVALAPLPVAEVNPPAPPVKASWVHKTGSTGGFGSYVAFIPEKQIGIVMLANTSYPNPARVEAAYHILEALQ
Procedure: (§4) Miscellaneous. Methods for determining bactericidal activity and susceptibility to cell-free β-lactamase were those previously used; Leitner et al., BL-S640, A Cephalosporin With a Broad Spectrum of Antibacterial Activity: Properties in vitro, Antimicrob. Agents Chemother.
(§5) Susceptibility to β-lactamase. Susceptibility to enzymic hydrolysis was assessed by determining relative rates of hydrolysis by cell-free preparations of various β-lactamases (Table 6).

[9] = molecular target: β-lactamase Class I Type b, Escherichia coli 719 (Escherichia coli, UniProt P00811); assay type: biochemical
Sequence of β-lactamase Class I Type b, Escherichia coli 719 (P00811 20-377): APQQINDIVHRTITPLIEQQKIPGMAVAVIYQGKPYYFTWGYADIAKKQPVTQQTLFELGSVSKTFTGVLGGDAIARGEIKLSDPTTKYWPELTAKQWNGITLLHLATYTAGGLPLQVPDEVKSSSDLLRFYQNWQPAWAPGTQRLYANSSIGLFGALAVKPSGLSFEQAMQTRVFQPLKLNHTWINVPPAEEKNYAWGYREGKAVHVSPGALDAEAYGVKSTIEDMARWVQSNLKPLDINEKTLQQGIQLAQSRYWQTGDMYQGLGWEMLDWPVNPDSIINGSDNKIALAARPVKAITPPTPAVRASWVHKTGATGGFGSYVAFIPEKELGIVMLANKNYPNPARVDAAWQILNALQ
Procedure: as §4, §5

[10] = system: β-lactamase Class II Type a, Proteus mirabilis 1266; assay type: biochemical
Procedure: as §4, §5

[11] = molecular target: T1, β-lactamase Class III Type a, Escherichia coli TEM (Escherichia coli, UniProt P62593); assay type: biochemical
T1 construct: cell-free preparations of various β-lactamases; endogenous in cells; host or cells: Escherichia coli strain TEM
T1 sequence (P62593 24-286 limits assumed): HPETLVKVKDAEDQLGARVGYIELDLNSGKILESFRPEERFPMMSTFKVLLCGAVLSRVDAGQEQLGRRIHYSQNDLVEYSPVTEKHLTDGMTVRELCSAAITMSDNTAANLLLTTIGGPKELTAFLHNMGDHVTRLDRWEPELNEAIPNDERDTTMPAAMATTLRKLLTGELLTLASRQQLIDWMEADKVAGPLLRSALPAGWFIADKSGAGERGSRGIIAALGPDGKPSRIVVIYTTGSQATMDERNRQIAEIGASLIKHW
Procedure: as §4, §5

[12] = system: β-lactamase Class IV Type a, Klebsiella pneumoniae 53; assay type: biochemical
Procedure: as §4, §5

[13] = system: β-lactamase Class IV Type b, Klebsiella pneumoniae 1169; assay type: biochemical
Procedure: as §4, §5

[14] = system: Arizona hinshawii; assay: Growth inhibitory activity, antibiotic dilution technique; conditions: Salmonella enterica, read-out: Minimum inhibitory concentration
[15] = system: Citrobacter sp.; assay: as above
[16] = system: Erwinia sp.; assay: as above; conditions: read-out: Minimum inhibitory concentration
[17] = system: Pasteurella multocida; assay: as above; conditions: read-out: Minimum inhibitory concentration
[18] = system: Neisseria gonorrhoeae; assay: as above
[19] = system: Escherichia coli; assay: Effect of inoculum size on susceptibility of Enterobacteriaceae
[20] = system: Enterobacter aerogenes; assay: as above; conditions: Klebsiella aerogenes, read-out: Minimum Inhibitory Concentration, Enterobacter aerogenes strain 1
[21] = Enterobacter aerogenes strain 1
[22] = Enterobacter aerogenes strain 2
[23] = Enterobacter aerogenes strain 3
[24] = Enterobacter cloacae strain 3, inoculum 10^4 cells
[25] = Enterobacter cloacae strain 4, inoculum 10^4 cells
[26] = Enterobacter cloacae strain 8, inoculum 10^4 cells
[27] = Escherichia coli strain 1, inoculum 10^4 cells
[28] = Escherichia coli strain 2, inoculum 10^4 cells
[29] = Escherichia coli strain 3, inoculum 10^4 cells
[30] = Escherichia coli strain 4, inoculum 10^4 cells
[31] = Escherichia coli strain 5, inoculum 10^4 cells
[32] = Escherichia coli strain 6, inoculum 10^4 cells
[33] = Klebsiella pneumoniae strain 1, inoculum 10^4 cells
[34] = Klebsiella pneumoniae strain 2, inoculum 10^4 cells
[35] = Klebsiella pneumoniae strain 3, inoculum 10^4 cells
[36] = Klebsiella pneumoniae strain 4, inoculum 10^4 cells
[37] = Klebsiella pneumoniae strain 5, inoculum 10^4 cells
[38] = Klebsiella pneumoniae strain 6, inoculum 10^4 cells
[39] = Proteus mirabilis strain 1, inoculum 10^4 cells
[40] = Proteus mirabilis strain 2, inoculum 10^4 cells
[41] = Proteus mirabilis strain 3, inoculum 10^4 cells
[42] = Proteus mirabilis strain 4, inoculum 10^4 cells
[43] = Proteus mirabilis strain 5, inoculum 10^4 cells
[44] = Proteus vulgaris, Proteus vulgaris strain 2
[45] = Proteus vulgaris, Proteus vulgaris strain 4

NCc1ccccc1CC(=O)N[C@@H]1C(=O)N2C(C(=O)O)=C(CSc3nnnn3CC(=O)O)CS[C@H]12 [Example 1] showed an MBC [1, 21] of 2 µg/mL (≈ 3.85 µM), an MIC [1, 21] of 2 µg/mL (≈ 3.85 µM) and an MBC [1, 22] of 2 µg/mL (≈ 3.85 µM). The MIC [1, 22] was 2 µg/mL (≈ 3.85 µM), the MBC [1, 23] was 16 µg/mL (≈ 30.8 µM) and the MIC [1, 23] was 8 µg/mL (≈ 15.4 µM). It also gave an MBC [2, 24] of 8 µg/mL (≈ 15.4 µM), an MIC [2, 24] of 4 µg/mL (≈ 7.7 µM) and an MBC [2, 25] of 63 µg/mL (≈ 121 µM). The MIC [2, 25] was 8 µg/mL (≈ 15.4 µM), the MBC [2, 26] was 63 µg/mL (≈ 121 µM) and the MIC [2, 26] was 63 µg/mL (≈ 121 µM). It also gave an MBC [3, 27] of 0.5 µg/mL (≈ 0.962 µM), an MIC [3, 27] of 0.5 µg/mL (≈ 0.962 µM) and an MBC [3, 28] of 16 µg/mL (≈ 30.8 µM). It also gave an MIC [3, 28] of 16 µg/mL (≈ 30.8 µM), an MBC [3, 29] of 0.5 µg/mL (≈ 0.962 µM) and an MIC [3, 29] of 0.25 µg/mL (≈ 0.481 µM). The MBC [3, 30] was 0.5 µg/mL (≈ 0.962 µM), the MIC [3, 30] was 0.5 µg/mL (≈ 0.962 µM) and the MBC [3, 31] was 1 µg/mL (≈ 1.92 µM). It also gave an MIC [3, 31] of 1 µg/mL (≈ 1.92 µM), an MBC [3, 32] of 1 µg/mL (≈ 1.92 µM) and an MIC [3, 32] of 1 µg/mL (≈ 1.92 µM). The MBC [4, 33] was 0.25 µg/mL (≈ 0.481 µM), the MIC [4, 33] was 0.25 µg/mL (≈ 0.481 µM) and the MBC [4, 34] was 0.25 µg/mL (≈ 0.481 µM). It also gave an MIC [4, 34] of 0.25 µg/mL (≈ 0.481 µM), an MBC [4, 35] of 0.25 µg/mL (≈ 0.481 µM) and an MIC [4, 35] of 0.25 µg/mL (≈ 0.481 µM). For the same compound, the MBC [4, 36] was 0.5 µg/mL (≈ 0.962 µM), the MIC [4, 36] was 0.5 µg/mL (≈ 0.962 µM) and the MBC [4, 37] was 0.5 µg/mL (≈ 0.962 µM). For the same compound, the MIC [4, 37] was 0.5 µg/mL (≈ 0.962 µM), the MBC [4, 38] was 1 µg/mL (≈ 1.92 µM) and the MIC [4, 38] was 0.5 µg/mL (≈ 0.962 µM). It also gave an MBC [5, 39] of 1 µg/mL (≈ 1.92 µM), an MIC [5, 39] of 0.5 µg/mL (≈ 0.962 µM) and an MBC [5, 40] of 0.5 µg/mL (≈ 0.962 µM). For the same compound, the MIC [5, 40] was 0.5 µg/mL (≈ 0.962 µM), the MBC [5, 41] was 0.5 µg/mL (≈ 0.962 µM) and the MIC [5, 41] was 0.5 µg/mL (≈ 0.962 µM). For the same compound, the MBC [5, 42] was 0.5 µg/mL (≈ 0.962 µM), the MIC [5, 42] was 0.25 µg/mL (≈ 0.481 µM) and the MBC [5, 43] was 0.5 µg/mL (≈ 0.962 µM). For the same compound, the MIC [5, 43] was 0.5 µg/mL (≈ 0.962 µM), the MBC ([6]; Proteus rettgeri strain 2) was 0.13 µg/mL (≈ 0.25 µM) and the MIC ([6]; Proteus rettgeri strain 2) was 0.063 µg/mL (≈ 0.121 µM). It also gave an MBC ([6]; Proteus rettgeri strain 3) of 63 µg/mL (≈ 121 µM), an MIC ([6]; Proteus rettgeri strain 3) of 0.25 µg/mL (≈ 0.481 µM) and an MIC ([7]; Proteus vulgaris strain 1) of 0.5 µg/mL (≈ 0.962 µM). The MBC ([7]; Proteus vulgaris, Proteus vulgaris strain 1) was 1 µg/mL (≈ 1.92 µM), the MBC [7, 44] was 0.5 µg/mL (≈ 0.962 µM) and the MIC [7, 44] was 0.5 µg/mL (≈ 0.962 µM). The MBC [7, 45] was 1 µg/mL (≈ 1.92 µM), the MIC [7, 45] was 0.5 µg/mL (≈ 0.962 µM) and the “Relative Rate of Hydrolysis (benzylpenicillin = 100)” value (“Relative Rate of Hydrolysis” for short) [8] was 1100. For the same compound, the “Relative Rate of Hydrolysis” value [9] was 190, the “Relative Rate of Hydrolysis” value [10] was < 1 and the “Relative Rate of Hydrolysis” value [11] was 2. The “Relative Rate of Hydrolysis” value [12] was 6, the “Relative Rate of Hydrolysis” value [13] was 30 and the MIC [14] was 0.13 µg/mL (≈ 0.25 µM). It also gave an MIC ([15]; read-out: Minimum inhibitory concentration) of 1 µg/mL (≈ 1.92 µM), an MIC ([15]; read-out: Minimum inhibitory concentration, Citrobacter sp., 1 strain) of 125 µg/mL (≈ 241 µM) and an MIC [16] of 0.66 µg/mL (≈ 1.27 µM). The MIC [17] was 0.25 µg/mL (≈ 0.481 µM), the “susceptibility of Neisseria gonorrhoeae” value [18] was “equally susceptible” and the MIC ([19]; read-out: Minimum Inhibitory Concentration, Escherichia coli strain 1, A, Inoculum of 10^2 organisms) was 0.5 µg/mL (≈ 0.962 µM). For the same compound, the MIC ([19]; read-out: Minimum Inhibitory Concentration, Escherichia coli strain 1, B, Inoculum of 10^6 organisms) was 2 µg/mL (≈ 3.85 µM), the MIC ([19]; read-out: Minimum Inhibitory Concentration, Escherichia coli strain 2, A, Inoculum of 10^2 organisms) was 4 µg/mL (≈ 7.7 µM) and the MIC ([19]; read-out: Minimum Inhibitory Concentration, Escherichia coli strain 2, B, Inoculum of 10^6 organisms) was 32 µg/mL (≈ 61.6 µM). It also gave an MIC ([19]; read-out: Minimum Inhibitory Concentration, Escherichia coli strain 3, A, Inoculum of 10^2 organisms) of 0.25 µg/mL (≈ 0.481 µM), an MIC ([19]; read-out: Minimum Inhibitory Concentration, Escherichia coli strain 3, B, Inoculum of 10^6 organisms) of 1 µg/mL (≈ 1.92 µM) and an MIC ([19]; read-out: Minimum Inhibitory Concentration, Escherichia coli strain 4, A, Inoculum of 10^2 organisms) of 0.5 µg/mL (≈ 0.962 µM). It also gave an MIC ([19]; read-out: Minimum Inhibitory Concentration, Escherichia coli strain 4, B, Inoculum of 10^6 organisms) of 2 µg/mL (≈ 3.85 µM), an MIC ([19]; read-out: Minimum Inhibitory Concentration, Escherichia coli strain 5, A, Inoculum of 10^2 organisms) of 1 µg/mL (≈ 1.92 µM) and an MIC ([19]; read-out: Minimum Inhibitory Concentration, Escherichia coli strain 5, B, Inoculum of 10^6 organisms) of 2 µg/mL (≈ 3.85 µM). For the same compound, the MIC ([19]; read-out: Minimum Inhibitory Concentration, Escherichia coli strain 6, A, Inoculum of 10^2 organisms) was 0.5 µg/mL (≈ 0.962 µM), the MIC ([19]; read-out: Minimum Inhibitory Concentration, Escherichia coli strain 6, B, Inoculum of 10^6 organisms) was 2 µg/mL (≈ 3.85 µM) and the MIC ([19]; read-out: Minimum Inhibitory Concentration, Escherichia coli strain 7, A, Inoculum of 10^2 organisms) was 0.25 µg/mL (≈ 0.481 µM). The MIC ([19]; read-out: Minimum Inhibitory Concentration, Escherichia coli strain 7, B, Inoculum of 10^6 organisms) was 2 µg/mL (≈ 3.85 µM), the MIC ([20]; A, Inoculum of 10^2 organisms) was 1 µg/mL (≈ 1.92 µM) and the MIC ([20]; B, Inoculum of 10^6 organisms) was > 250 µg/mL.
